Assay results published in patent US6878742B2, “Heterocyclic sulfonamide inhibitors of beta amyloid production” (Wyeth, priority 2000, dated 2005).

Tested on: amyloid precursor protein (APP) proteolysis
Test: Repressor Release Assay (RRA)
Type: cell-based
Conditions: luciferase activity over diluent control; for fold induction at 10 µg/mL: Conc 10 μg/mL; for fold induction at 10 µg/mL / fold induction at 20 µg/mL: read-out: APPI Fold Increase; for fold induction at 20 µg/mL / APPI Fold Increase: Conc 20 μg/mL
How it was run: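 CHO-K1 cells grown in DMEM with 10% fetal bovine serum were transiently co-transfected with pRSVO-luc and APP-lacI constructs via Lipofectamine Plus, plated into opaque 96-well plates, and exposed to diluted compound in duplicate for 36-48 hours at 37° C. LucLite luciferase signal was read on a TopCount and expressed as fold increase in relative light units over Hepes/DMSO diluent control.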

SMILES | fold induction at 10 µg/mL | also measured
CC[C@H](C)[C@H](NS(=O)(=O)c1ccc(Cl)s1)C(O)CCC1OCCCO1 (stereo partly drawn) [Example 136, 5-chloro-N-{(S)-4-(1,3-dioxan-2-yl)-2-hydroxy-1-[(S)-1-methylpropyl]butyl}thiophene-2-sulfonamide] | 2.13 | 
C=CCCC(O)[C@@H](NS(=O)(=O)c1ccc(Cl)s1)[C@@H](C)CC (stereo partly drawn) [Example 137, 5-chloro-N-{(S)-2-hydroxy-1-[(S)-1-methylpropyl]hex-5-enyl}thiophene-2-sulfonamide] | 1.96 | 
CC[C@H](C)[C@H](NS(=O)(=O)c1ccc(Cl)s1)C(O)c1ccc(SC)cc1 (stereo partly drawn) [Example 138, 5-chloro-N-((S,S)-1-{hydroxy[4-(methylthio)phenyl]methyl}-2-methylbutyl)thiophene-2-sulfonamide] | 3.54 | 
CC[C@H](C)[C@H](NS(=O)(=O)c1ccc(Cl)s1)C(O)c1ccc(N(C)C)cc1 (stereo partly drawn) [Example 139, 5-chloro-N-{(S,S)-1-[[4-(dimethylamino)phenyl](hydroxy)methyl]-2-methylbutyl}thiophene-2-sulfonamide] | 3.97 | 
CC[C@H](C)[C@H](NS(=O)(=O)c1cccs1)C(O)C1CCCC1 (stereo partly drawn) [Example 140, N-{(S,S)-1-[cyclopentyl(hydroxy)methyl]-2-methylbutyl}thiophene-2-sulfonamide] | 2.57 | 
CCCCCCC(O)[C@@H](NS(=O)(=O)c1cccs1)[C@@H](C)CC (stereo partly drawn) [Example 141, N-{(S)-2-hydroxy-1-[(S)-1-methylpropyl]octyl}thiophene-2-sulfonamide] | 4.2 | 
CCCCCC(O)[C@@H](NS(=O)(=O)c1cccs1)[C@@H](C)CC (stereo partly drawn) [Example 142, N-{(S)-2-hydroxy-1-[(S)-1-methylpropyl]heptyl}thiophene-2-sulfonamide] | 3.59 | 
CCCCC(O)[C@@H](NS(=O)(=O)c1cccs1)[C@@H](C)CC (stereo partly drawn) [Example 143, N-{(S)-2-hydroxy-1-[(S)-1-methylpropyl]hexyl}thiophene-2-sulfonamide] | 1.64 | 
CC[C@H](C)[C@H](NS(=O)(=O)c1cccs1)C(O)c1ccccc1C (stereo partly drawn) [Example 144, N-{(S,S)-1-[hydroxy(2-methylphenyl)methyl]-2-methylbutyl}thiophene-2-sulfonamide] | 1.51 | 
CC[C@H](C)[C@H](NS(=O)(=O)c1cccs1)C(O)C(C)(C)C (stereo partly drawn) [Example 145, N-{(S)-2-hydroxy-3,3-dimethyl-1-[(S)-1-methylpropyl]butyl}thiophene-2-sulfonamide] | 1.72 | 
C=CC(O)[C@@H](NS(=O)(=O)c1cccs1)[C@@H](C)CC (stereo partly drawn) [Example 146, N-{(S)-2-hydroxy-1-[(S)-1-methylpropyl]but-3-enyl}thiophene-2-sulfonamide] | 1.83 | 
C=CCC(O)[C@@H](NS(=O)(=O)c1cccs1)[C@@H](C)CC (stereo partly drawn) [Example 147, N-{(S)-2-hydroxy-1-[(S)-1-methylpropyl]pent-4-enyl}thiophene-2-sulfonamide] | 2.04 | 
CCC(O)[C@@H](NS(=O)(=O)c1cccs1)[C@@H](C)CC (stereo partly drawn) [Example 148, N-{(S)-2-hydroxy-1-[(S)-1-methylpropyl]butyl}thiophene-2-sulfonamide] | 1.52 | 
CC[C@H](C)[C@H](NS(=O)(=O)c1cccs1)C(O)c1ccc(OC)cc1 (stereo partly drawn) [Example 149, N-{(S,S)-1-[hydroxy(4-methoxyphenyl)methyl]-2-methylbutyl}thiophene-2-sulfonamide] | 1.62 | 
CC[C@H](C)[C@H](NS(=O)(=O)c1cccs1)C(O)CCC1OCCCO1 (stereo partly drawn) [Example 150, N-{(S)-4-(1,3-dioxan-2-yl)-2-hydroxy-1-[(S)-1-methylpropyl]butyl}thiophene-2-sulfonamide] | 1.6 | 
C=CCCC(O)[C@@H](NS(=O)(=O)c1cccs1)[C@@H](C)CC (stereo partly drawn) [Example 151, N-{(S)-2-hydroxy-1-[(S)-1-methylpropyl]hex-5-enyl}thiophene-2-sulfonamide] | 1.94 | 
CC#CC(O)[C@@H](NS(=O)(=O)c1cccs1)[C@@H](C)CC (stereo partly drawn) [Example 152, N-{(S)-2-hydroxy-1-[(S)-1-methylpropyl]pent-3-ynyl}thiophene-2-sulfonamide] | 1.51 | 
CC[C@H](C)[C@H](NS(=O)(=O)c1cccs1)C(O)c1ccc(SC)cc1 (stereo partly drawn) [Example 153, N-((S,S)-1-{hydroxy[4-(methylthio)phenyl]methyl}-2-methylbutyl)thiophene-2-sulfonamide] | 2.09 | 
CC[C@H](C)[C@H](NS(=O)(=O)c1cccs1)C(O)c1ccc(N(C)C)cc1 (stereo partly drawn) [Example 154, N-{(S,S)-1-[[4-(dimethylamino)phenyl](hydroxy)methyl]-2-methylbutyl}thiophene-2-sulfonamide] | 4.23 | 
CC[C@H](C)[C@H](NS(=O)(=O)c1ccc(Cl)s1)[C@@H](O)C1C=CCCC1 (stereo partly drawn) [Example 155, 5-Chloro-N-{(S,S)-1-[(S)-cyclohex-2-en-1-yl(hydroxy)methyl]-2-methylbutyl}thiophene-2-sulfonamide] |  | fold induction at 20 µg/mL: 4.2

SMILES | fold induction at 10 µg/mL | also measured
CC[C@H](C)[C@H](NS(=O)(=O)c1ccc(Cl)s1)C(O)C/C=C/c1ccccc1 (stereo partly drawn) [Example 161, 5-chloro-N-{(S,E)-2-hydroxy-1-[(S)-1-methylpropyl]-5-phenylpent-4-enyl}thiophene-2-sulfonamide] |  | fold induction at 20 µg/mL: 2.6
CC[C@H](C)[C@H](NS(=O)(=O)c1ccc(Cl)s1)C(C)(C)O [Example 162, 5-Chloro-N-[(S,S)-1-(1-hydroxy-1-methylethyl)-2-methylbutyl]thiophene-2-sulfonamide] | 2.6 | 
CCCCCC(O)(CCCCC)[C@@H](NS(=O)(=O)c1ccc(Cl)s1)[C@@H](C)CC [Example 163, 5-chloro-N-{(S)-2-hydroxy-1-[(S)-1-methylpropyl]-2-pentylheptyl}thiophene-2-sulfonamide] | 3.3 | 
CC[C@H](C)[C@H](NS(=O)(=O)c1ccc(Cl)s1)C(O)(c1ccccc1)c1ccccc1 [Example 164, 5-chloro-N-{(S,S)-1-[hydroxy(diphenyl)methyl]-2-methylbutyl}thiophene-2-sulfonamide] | 1.72 | 
C=CCC(O)(CC=C)[C@@H](NS(=O)(=O)c1ccc(Cl)s1)[C@@H](C)CC [Example 165, N-{(S)-2-allyl-2-hydroxy-1-[(S)-1-methylpropyl]pent-4-enyl}-5-chlorothiophene-2-sulfonamide] | 1.73 | 
CC[C@H](C)[C@H](NS(=O)(=O)c1ccc(Cl)s1)C(O)(CC)CC [Example 166, 5-chloro-N-{(S)-2-ethyl-2-hydroxy-1-[(S)-1-methylpropyl]butyl}thiophene-2-sulfonamide] | 1.78 | 
CC[C@H](C)[C@H](NS(=O)(=O)c1ccc(Cl)s1)C(O)(c1ccc(Cl)cc1)c1ccc(Cl)cc1 [Example 167, N-{(S,S)-1-[bis(4-chlorophenyl)(hydroxy)methyl]-2-methylbutyl}-5-chlorothiophene-2-sulfonamide] | 3.42 | 
CC[C@H](C)[C@H](NS(=O)(=O)c1ccc(Cl)s1)C(O)(c1ccc(OC)cc1)c1ccc(OC)cc1 [Example 169, 5-chloro-N-((S,S)-1-{hydroxy[bis(4-methoxyphenyl)]methyl}-2-methylbutyl)thiophene-2-sulfonamide] | 1.51 | 
C/C=C(\C)C(O)(/C(C)=C/C)[C@@H](NS(=O)(=O)c1ccc(Cl)s1)[C@@H](C)CC (stereo partly drawn) [Example 170, 5-chloro-N-{(S,E)-2-hydroxy-3-methyl-2-[(E)-1-methylprop-1-enyl]-1-[(S)-1-methylpropyl]pent-3-enyl}thiophene-2-sulfonamide] | 1.95 | 
C=CCCC(O)(CCC=C)[C@@H](NS(=O)(=O)c1ccc(Cl)s1)[C@@H](C)CC [Example 171, N-{(S)-2-but-3-enyl-2-hydroxy-1-[(S)-1-methylpropyl]hex-5-enyl}-5-chlorothiophene-2-sulfonamide] | 5.32 | 
CC[C@H](C)[C@H](NS(=O)(=O)c1ccc(Cl)s1)C(O)(c1cccc2ccccc12)c1cccc2ccccc12 [Example 172, 5-chloro-N-((S,S)-1-{hydroxy[di(1-naphthyl)]methyl}-2-methylbutyl)thiophene-2-sulfonamide] | 2 | 
CC[C@H](C)[C@H](NS(=O)(=O)c1ccc(Br)s1)C(O)(CC)CC [Example 173, 5-bromo-N-{(S)-2-ethyl-2-hydroxy-1-[(S)-1-methylpropyl]butyl}thiophene-2-sulfonamide] | 1.5 | 
C=C(C)C(O)(C(=C)C)[C@@H](NS(=O)(=O)c1ccc(Br)s1)[C@@H](C)CC [Example 174, 5-bromo-N-{(S)-2-hydroxy-2-isopropenyl-3-methyl-1-[(S)-1-methylpropyl]but-3-enyl}thiophene-2-sulfonamide] | 1.75 | 
C=CCCC(O)(CCC=C)[C@@H](NS(=O)(=O)c1ccc(Br)s1)[C@@H](C)CC [Example 176, 5-bromo-N-{(S)-2-but-3-enyl-2-hydroxy-1-[(S)-1-methylpropyl]hex-5-enyl}thiophene-2-sulfonamide] | 1.52 | 
O=S(=O)(NC1(CO)CCCCC1)c1ccc(Cl)s1 [Example 177, 5-Chloro-N-[1-(hydroxymethyl)cyclohexyl]thiophene-2-sulfonamide] |  | fold induction at 20 µg/mL: 5.1
O=S(=O)(NC1(CO)CC2CCC1C2)c1ccc(Cl)s1 (stereo not drawn) [Example 178, 5-chloro-N-[2-(hydroxymethyl)bicyclo[2.2.1]hept-2-yl]thiophene-2-sulfonamide] |  | fold induction at 20 µg/mL: 2.3
O=S(=O)(NC1(CO)CCc2ccccc21)c1ccc(Cl)s1 (stereo not drawn) [Example 179] |  | APPI Fold Increase: 8.3 fold
O=S(=O)(NC1(CO)Cc2ccccc2C1)c1ccc(Cl)s1 [Example 180] |  | APPI Fold Increase: 2.3 fold
O=S(=O)(NC1(CO)CCCCC1)c1ccc(Br)s1 [Example 181, 5-bromo-N-[1-(hydroxymethyl)cyclohexyl]thiophene-2-sulfonamide] |  | fold induction at 20 µg/mL: 2.6
